Patent US20220187282A1, “CARDIOMYOCYTE PROLIFERATION” (The Council of the Queensland Institute of Medical Research, priority 2019, published 2022)

Experiments:
Format in all cases: cell-based, human
mature hCO = test: single organoid quantitative proteomics of mature hCO; conditions: for cell cycle programs regulated at the protein level: mature hCO, 2 days
Experimental: Single hCO were washed 2× in PBS and snap frozen and stored at −80° C. Tissues were lysed in by tip-probe sonication in 1% SDS containing 100 mM Tris pH 8.0, 10 mM tris(2-carboxyethyl)phosphine, 40 mM 2-chloroacetamide and heated to 95° C. for 5 min. Proteins were purified using a modified Single-Pot Solid-Phase-enhanced Sample Preparation (SP3) strategy (Hughes et al., 2014). Briefly, Proteins were bound to Sera-Mag carboxylate coated paramagnetic beads in 50% acetonitrile containing 0.8% formic acid (v/v) (ThermoFisher Scientific). The beads were washed twice with 70% ethanol (v/v) and once with 100% acetonitrile. Proteins were digested on the beads in 100 mM Tris pH 7.5 containing 10% 2,2,2-Trifluoroethanol overnight at 37° C. with 200 ng of sequencing grade LysC (Wako Chemicals) and trypsin (Sigma). Beads were removed and peptides acidified to 1% trifluoroacetic acid prior to purification by styrene divinyl benzene-reversed phase sulfonated solid phase extraction microcolumns. Peptides were spiked with iRT peptides (Biognosys) and analysed on an Easy-nLC1200 coupled to a Q-Exactive HF in positive polarity mode. Peptides were separated using an in-house packed 75 μm×50 cm pulled column (1.9 μm particle size, C18AQ; Dr Maisch) with a gradient of 2-35% acetonitrile containing 0.1% FA over 120 min at 300 nL/min at 60° C. The instrument was operated in data-independent acquisition (DIA) mode essentially as described previously (Bruderer et al., 2017). Briefly, an MS1 scan was acquired from 350-1650 m/z (120,000 resolution, 3e6 AGC, 50 ms injection time) followed by 20 MS/MS variable sized isolation windows with HCD (30,000 resolution, 3e6 AGC, 27 NCE). A spectral library was created by fractionating a pooled mix of peptides from 10 separate hCO on an inhouse packed 320 μm×25 cm column (3 μm particle size, BEH; Waters) with a gradient of 2-40% acetonitrile containing 10 mM ammonium formate over 60 min at 6 μL/min using an Agilent 1260 HPLC. A total of 12 concatenated fractions were analysed using the identical LC-MS/MS conditions above except the instrument was operated in data-dependent acquisition (DDA) mode. Briefly, an MS1 scan was acquired from 350-1650 m/z (60,000 resolution, 3e6 AGC, 50 ms injection time) followed by 20 MS/MS with HCD (1.4 m/z isolation, 15,000 resolution, 1e5 AGC, 27 NCE). DDA data were processed with Andromeda in MaxQuant v1.5.8.3 (Cox and Mann, 2008) against the human UniProt database (January 2016) using all default settings with peptide spectral matches and protein false discovery rate (FDR) set to 1%. DIA data were processed with Spectronaut v11 (Bruderer et al., 2015) using all default settings with precursor and protein FDR set to 1% and quantification performed at MS2.
Proteomic data were Log 2 transformed and median normalised. Removal of unwanted variation method (RUV) was applied to remove any batch effects (Gagnon-Bartsch et al., 2013). Differential abundance was determined with two sample t-tests with FDR-based multiple hypothesis testing correction. GO analysis was performed with DAVID v6.8 and gene ontology terms from BP_FAT (Huang da et al., 2009) and heat-maps and hierarchical clustering was performed using GENE-E (Broad Institute).
In order to determine the biological processes driving the pro-proliferative effects of our hit compounds, we performed RNA-sequencing (RNA-seq) and single organoid quantitative proteomics (FIG. 4A). These analyses were performed on hCOs treated with compounds 3, 63 and 65 at concentrations of 3 μM, 0.3 μM and 1 μM, respectively. RNA-seq for hCO treated with compounds 3 and 65 clustered distinctly in principal component analysis (FIG. 4B) and regulated a total of 239 and 207 genes (FIG. 9A), respectively.

mature hCOs [1] = test: mature hCO, force of contraction; conditions: 2 days, compound 3 at 3 μM, 63 at 0.3 μM, 65 at 1 μM
Experimental: (§1) hCOs were cultured in CTRL medium for formation for 5 days and then either kept in CTRL medium culture or changed to maturation medium (Mills et al., 2017a) comprising DMEM without glucose, glutamine and phenol red (ThermoFisher Scientific) supplemented with 4% […](without insulin) (ThermoFisher Scientific), 1% GlutaMAX (ThermoFisher Scientific), 200 μM L-ascorbic acid 2-phosphate sesquimagnesium salt hydrate and 1% Penicillin/Streptomycin (ThermoFisher Scientific), 1 mmol/L glucose and 100 μmon palmitic acid (conjugated to bovine serum albumin within B27 by incubating for 2h at 37° C., Sigma) with changes every 2-3 days.
The pole deflection was used to approximate the force of contraction as per (Mills et al., 2017a). A Leica DMi8 inverted high content Imager was used to capture a 10 s time-lapse of each hCO contracting in real time at 37° C. […]
Hits were next validated in mature hCOs using a targeted concentration range based on their active concentrations in the initial immature hCO screen (FIG. 3A). Proliferation markers were quantified using high magnification confocal imaging as we found flow cytometry to be inaccurate in hCO (data not shown). […]

mature hCOs [2] = test: mature hCO, cardiomyocyte proliferation (Ki-67 intensity, Ki-67+ α-actinin cardiomyocytes); conditions: mature hCO; for Ki-67+ cardiomyocytes: 2 days, compound 3 at 3 μM, 63 at 0.3 μM, 65 at 1 μM; for proliferative response (Ki-67 intensity) with 10 μM simvastatin: 1 μM compound 65, 3 μM compound 3 or 10 μM compound 6.28; for proliferation above the optimal concentrations: above 3 μM (compound 3), above 1 μM (compound 65)
Experimental: as §1
Whole-Mount Immunostaining hCOs were fixed for 60 min with 1% paraformaldehyde (Sigma) at room temperature and washed 3× with PBS, after which they were incubated with primary antibodies (see Star Methods Table) in Blocking Buffer, 5% FBS and 0.2% Triton-X-100 (Sigma) in PBS overnight at 4° C. Cells were then washed in Blocking Buffer 2× for 2 h and subsequently incubated with secondary antibodies (see Star Methods Table) and Hoechst33342 (1:1000) overnight at 4° C. They were washed in Blocking Buffer 2× for 2 h and imaged in situ or mounted on microscope slides using Fluoromount-G (Southern Biotech).
For screening hCOs were imaged using a Leica DMi8 high content imaging microscope for in situ imaging. Custom batch processing files were written in Matlab R2013a (Mathworks) to remove the background, calculate the image intensity, and export the batch data to an Excel (Microsoft) spreadsheet.
For more detailed images an Olympus IX81 confocal microscope was used for mounted hCO imaging. For cell cycle analysis experiments 3 random fields of view were imaged and manually quantified for proliferation. These were added together to calculate the percentage of hPSC-CM proliferation in each hCO.
Hits were next validated in mature hCOs using a targeted concentration range based on their active concentrations in the initial immature hCO screen (FIG. 3A). Proliferation markers were quantified using high magnification confocal imaging as we found flow cytometry to be inaccurate in hCO (data not shown). Compounds 3, 63 and 65 had no impact on contractile force (FIG. 3B) at concentrations of 3 μM, 0.3 μM and 1 μM, respectively. […] The effects of both compound 3 and compound 65 were reversible, with proliferation ceasing within 5 days of compound withdrawal (FIG. 8B). Therefore, compound 3 (FIG. 3G) and compound 65 (Goldberg et al., 2009) (FIG. 3H) are both capable of inducing bona fide cardiomyocyte proliferation in mature hCOs without adversely affecting contractile properties.

Question: What does the source list for `Cc1ccc(NC(=O)c2ccnc(N3CCOCC3)c2)cc1Nc1ccnc(N2CC(C)OC(C)C2)n1` (centres unmarked) [compound 3]?
Answer: proliferation signature proteins (cell cycle network, mevalonate enzymes, nuclear transporters) (mature hCO; mature hCO proteomics): induced; cell cycle programs regulated at the protein level (mature hCO): DNA replication, G1/S transition and G2/M transition; contractile force (mature hCOs [1]): no impact; Ki-67+ cardiomyocytes with 10 μM simvastatin (mature hCOs [2]; 3 μM compound 3): abolished; Ki-67+ cardiomyocytes (mature hCOs [2]): increased; proliferative response (Ki-67 intensity) with 10 μM simvastatin (mature hCOs [2]): abolished; proliferation above the optimal concentrations (mature hCOs [2]): no further increase

Question: With `Cc1cc(Oc2ccnc(Nc3ccc(S(N)(=O)=O)cc3)c2)c(-c2ccccn2)nc1C` [compound 65] as the compound, how does the “induction of the mevalonate pathway (cholesterol biosynthetic process enzymes)” value (mature hCO; mature hCO proteomics) read?
Answer: The value was “most robust inducers”.

Question: And the “proliferation signature proteins (cell cycle network, mevalonate enzymes, nuclear transporters)” value (mature hCO; mature hCO proteomics)?
Answer: The value was “induced”.

Question: And the “cell cycle programs regulated at the protein level” value (mature hCO)?
Answer: The value was “DNA replication, G1/S transition and G2/M transition”.

Question: And the contractile force (mature hCOs [1])?
Answer: Its contractile force is “no impact”.

Question: What about the “Ki-67+ cardiomyocytes” value (mature hCOs [2]) of the same compound?
Answer: Its value is “increased”.

Question: And the “proliferative response (Ki-67 intensity) with 10 μM simvastatin” value (mature hCOs [2])?
Answer: Its value is “abolished”.

Question: What about the “proliferation above the optimal concentrations” value (mature hCOs [2]) of the same compound?
Answer: Its value is “no further increase”.
